Data published in PMC10059848, “Inhibition Kinetics and Theoretical Studies on Zanthoxylum chalybeum Engl. Dual Inhibitors of α-Glucosidase and α-Amylase” (Journal of Xenobiotics, 2023).
pIC50: −log10 of the molar value.

Key:
[1] = biological target: T1, porcine pancreas α-amylase (Sus scrofa, UniProt P00690); assay: Inhibition kinetics of α-amylase (Lineweaver–Burk and Dixon plots); details: for Inhibition Mode, α-Amylase: Lineweaver–Burk plots
T1 sequence (P00690 16-511): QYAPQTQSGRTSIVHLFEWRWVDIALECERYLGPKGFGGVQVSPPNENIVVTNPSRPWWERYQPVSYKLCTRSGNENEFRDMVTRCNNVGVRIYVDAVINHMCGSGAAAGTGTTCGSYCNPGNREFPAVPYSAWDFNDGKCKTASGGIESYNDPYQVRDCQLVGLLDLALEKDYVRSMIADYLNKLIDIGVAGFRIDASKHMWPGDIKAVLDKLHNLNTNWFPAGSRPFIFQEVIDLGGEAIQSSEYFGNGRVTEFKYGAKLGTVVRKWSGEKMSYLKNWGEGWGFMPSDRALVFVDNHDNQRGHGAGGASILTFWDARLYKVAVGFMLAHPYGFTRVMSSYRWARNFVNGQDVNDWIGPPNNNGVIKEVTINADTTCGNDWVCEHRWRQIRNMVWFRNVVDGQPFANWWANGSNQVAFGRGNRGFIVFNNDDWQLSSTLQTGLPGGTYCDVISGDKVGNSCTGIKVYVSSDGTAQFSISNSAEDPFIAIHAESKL
Excerpt: Using Lineweaver–Burk plots, the mode of inhibition was established, followed by secondary plots (Dixon plots) depending on the established mode of inhibition. The following equation was used to obtain the inhibition constants (Ki) [15]: v=Vmax ×S/Km(1+[I]/Ki)+S(1+[I]/αKi) where S and I are the concentrations of the substrate and inhibitor, respectively; Vmax is the maximum velocity; Km is the Michaelis–Menten constant; Ki is the competitive inhibition constant; and αKi is the uncompetitive inhibition constant.
Lineweaver–Burk plots on monoreplicate tests were performed followed by Dixon secondary plots to determine the inhibition constants. The means of the observed triplicate inhibition constants were subjected to analysis of variance with Tukey HSD/Tukey Kramer post-analysis to compare means. The least significant difference was considered at p < 0.05 and the coefficient of determination (R^2) was obtained as the average of the regression curves from Dixon plots of individual experiments.

yeast α-glucosidase = yeast α-glucosidase (Saccharomyces cerevisiae, UniProt P53341); assay: Inhibition kinetics of α-glucosidase (Lineweaver–Burk and Dixon plots); assay type: biochemical; details: for Inhibition Mode, α-Glucosidase: Lineweaver–Burk plots
α-glycosidase = biological target: α-glycosidase; parameters: method as in PMID 32889048; details: read-out: IC50 against α-glycosidase; cited from earlier work
[2] = Lineweaver-Burk plot, competitive inhibition

yeast α-glucosidase, sequence (P53341 whole entry): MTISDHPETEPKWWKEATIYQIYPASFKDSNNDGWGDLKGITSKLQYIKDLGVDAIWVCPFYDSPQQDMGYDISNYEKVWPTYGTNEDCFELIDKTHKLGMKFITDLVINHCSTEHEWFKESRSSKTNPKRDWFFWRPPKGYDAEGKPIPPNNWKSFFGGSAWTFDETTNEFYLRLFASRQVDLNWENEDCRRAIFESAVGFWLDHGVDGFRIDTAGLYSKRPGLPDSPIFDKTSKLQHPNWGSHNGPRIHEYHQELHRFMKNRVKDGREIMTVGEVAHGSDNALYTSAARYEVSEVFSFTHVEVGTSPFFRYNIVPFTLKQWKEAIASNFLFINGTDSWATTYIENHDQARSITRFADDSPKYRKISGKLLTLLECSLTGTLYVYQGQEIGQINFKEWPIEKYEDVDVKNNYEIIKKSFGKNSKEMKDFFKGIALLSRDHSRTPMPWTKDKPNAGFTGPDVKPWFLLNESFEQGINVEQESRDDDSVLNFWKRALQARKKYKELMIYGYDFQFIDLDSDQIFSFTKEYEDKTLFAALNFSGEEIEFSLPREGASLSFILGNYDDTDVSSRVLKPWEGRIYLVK

Molecule	Inhibition Mode, α-Amylase [1]	Inhibition Mode, α-Glucosidase (yeast α-glucosidase)	1/Vmax, α-amylase [1, 2] [s⁻¹]	1/Vmax, α-glucosidase (yeast α-glucosidase; [2]) [s⁻¹]	pIC50 (α-glycosidase)
CC(C)CNC(=O)/C=C/C/C=C/c1ccc2c(c1)OCO2 [Compound 1, Chalybemide A]	Non-competitive	Non-competitive	–	–	–
COc1ccc(CN(C)C(=O)c2ccccc2OC)cc1 [Compound 3, chalybemide C]	Non-competitive	Non-competitive	–	–	–
OCC1OC1c1ccc2c(c1)OCO2 (stereo not shown) [Compound 10, 2,3-epoxy-6,7-methylenedioxyconiferol]	Competitive	Competitive	24.47	20.25	–
CC(C)CNC(=O)/C=C/c1ccc2c(c1)OCO2 [Compound 4, fagaramide]	Non-competitive	Non-competitive	–	–	–
COc1ccc2c(cnc3c4cc5c(cc4ccc23)OCO5)c1OC [Compound 6, norchelerythrine]	Mixed	Mixed	–	–	–
CC(C)(O)CNC(=O)/C=C/c1ccccc1 [Compound 2, chalybemide B]	Non-competitive	Uncompetitive	–	–	–
C[C@H]1O[C@H](O[C@H]2[C@H](O)[C@@H](O)[C@@H](O[C@H]3[C@H](O)[C@@H](O)C(O)O[C@@H]3CO)O[C@@H]2CO)[C@H](O)[C@@H](O)[C@@H]1N[C@H]1C=C(CO)[C@@H](O)[C@H](O)[C@H]1O (stereo partly shown) [Acarbose, acarbose, reference compound]	Competitive	Competitive	–	–	4.35
6-hydroxy-N-methyldecarine [Compound 8]	Mixed	Mixed	–	–	–
COc1ccc2c(OC)c3ccoc3nc2c1OC [Compound 5, skimmianine]	Mixed	Mixed	–	–	–
COc1cc(-c2cc3cc(/C=C/CO)cc(OC)c3o2)ccc1O [Compound 9, ailanthoidol]	Uncompetitive	Uncompetitive	–	–	–
c1cc2c(cc1C1OCC3C(c4ccc5c(c4)OCO5)OCC13)OCO2 (stereo not shown) [Compound 11, sesamine]	Non-competitive	non-competitive	–	–	–
